Measurements published in US20090215713A1, “Use of atp for the manufacture of a medicament for the prevention and treatment of oxidative stress and related conditions” (priority 2004, published 2009).
Entries after “also recorded” stand apart in the source; their conditions may differ.

Key:
[1] = system: TNF-α; experiment: LPS+PHA-induced TNF-α secretion in whole blood from healthy subjects (ELISA); assay type: cell-based, human; conditions: for effect of purinergic compound on LPS+PHA-induced TNF-α release: 300 μM, 24 h; for effect on inhibiting TNFα and stimulating IL-10 production: LPS-PHA stimulated whole blood, Experiment 4
Description: FIG. 7 Effect of ATP on LPS+PHA-induced TNF-α secretion in whole blood from healthy subjects. The whole blood was exposed to 10 μg/ml LPS and 1 μg/ml PHA with indicated concentrations of ATP for 24 h. The TNF-α released into the supernatants was analyzed using the ELISA method. Results are expressed in percentage, 100% being the TNF-α release under stimulation by LPS+PHA without ATP. […] Data are expressed as the mean values; error bars represent SEM. *, different from control (stimulation by LPS+PHA without ATP) (P<0.05).
FIG. 13 Effect of different purinergic compounds on LPS+PHA-induced TNF-α secretion in whole blood. The whole blood was exposed to 10 μg/ml LPS and 1 μg/ml PHA with the indicated purinergic compounds at the concentration of 300 μM for 24 h. The TNF-α released into the supernatant was analyzed using the ELISA method. Results are expressed in percentage, 100% being the TNF-α release under stimulation by LPS+PHA without addition of a purinergic compound (control). […] The TNF-α release induced by LPS+PHA from whole blood was not inhibited by UTP, UDP or CTP. Data are expressed as the mean values; error bars represent SEM.
Blood was collected from 8 healthy subjects in heparin containing vacutainer tubes. All incubations were performed in duplicate. ATP was dissolved in RPMI 1640 culture medium, at a final concentration of 1-300 μM, and blood pre-incubated with ATP at 5% CO2 at 37 DC for 30 min. After stimulation with LPS en PHA (10 and 1 μg/ml final concentration, respectively), the plates were incubated in 5% CO2 at 37° C. for 24 h. Cell-free supernatant fluids were then collected by centrifugation (6000 rpm, 10 min at 4° C.) and stored at −20° C. until tested for presence of cytokines. All cytokines were quantified by means of PeliKine Compact human ELISA kits (CLB/Sanquin, The Netherlands), based on appropriate and validated sets of monoclonal antibodies.
Whole blood was collected and stimulated with LPS+PHA as described for Experiment 2. ATP, dissolved in RPMI 1640 culture medium, was added to the blood at a final concentration of 1-1000 μM. The agonists were added in the same way as ATP, however their stock solutions are prepared in PBS and further diluted in medium. All incubations are performed in duplicate.

[2] = ESR measurement of DMPO—OH spin adducts during Fenton chemistry; assay type: biochemical
Description: The effect of ATP on the formation or scavenging of hydroxyl radicals, generated by Fenton reagents was measured as DMPO—OH spin adducts in ESR spectra. The ESR studies were performed at room temperature using a Bruker EMX 1273 spectrometer equipped with an ER 4119HS high sensitivity cavity and 12 kW power supply. The following instrument conditions were used: scan range, 60 G; center magnetic field, 3490 G; modulation amplitude, 1.0 G; microwave frequency, 9.86 GHz; time constant, 40.96 ms, scan time, 20.48 ms; number of scans, 50. OH radicals were generated by the Fenton reaction, and 5,5-dimethyl-1-pyrroline N-oxide (DMPO) was used for trapping hydroxyl radicals. Fifty microliters of 10 mM H2O2, 50 μl of 250 mM DMPO, 50 μl milliQ, 50 μl milliQ (control) or sample, and 50 μl 5 mM FeSO4/5 mM EDTA were mixed, and then transferred to a capillary glass tube. After 2 minutes, DMPO—OH spin adducts were measured by ESR. Quantification of the spectra was performed by peak integration using the WIN-EPR spectrum manipulation program.
Electron spin resonance (ESR) studies were performed at room temperature using a Bruker EMX 1273 spectrometer equipped with an ER 4119HS high sensitivity cavity and 12 kW power supply. The following instrument conditions were used: scan range, 60 G; center magnetic field, 3490 G; modulation amplitude, 1.0 G; microwave frequency, 9.86 GHz; time constant, 40.96 ms, scan time, 20.48 ms; number of scans, 50. OH radicals were generated by the Fenton reaction, and 5,5-Dimethyl-1-pyrroline N-oxide (DMPO) was used for trapping hydroxyl radicals. Fifty microliters of 10 mM H2O2, 50 μl 250 mM DMPO, 50 μl milliQ, 50 μl milliQ (blanco) or sample and 50 μl 5 mM FeSO4/5 mM EDTA were mixed, transferred to a capillary glass tube and the DMPO—OH spin adducts were measured after 2 minutes by ESR. Quantification of the spectra (in arbitrary units) was performed by peak integration using the WIN-EPR spectrum manipulation program.

[3] = system: mice bearing colon tumour; conditions: cited from earlier work; for effect on host weight loss: daily intraperitoneal injections of 25 mmol/L for 10 days

Row | SMILES | effect of purinergic compound on LPS+PHA-induced TNF-α release [1] | effect on inhibiting TNFα and stimulating IL-10 production [1] | further results
1 | Nc1ncnc2c1ncn2[C@@H]1O[C@H](COP(=O)(O)OP(=O)(O)O)[C@@H](O)[C@H]1O [ADP] | inhibited | – | effectiveness in preventing DMPO—OH formation relative to comparator ([2]; 0.1 mM-10 mM): slightly less effective; inhibition of the DMPO—OH spin adduct formation ([2]; highest concentration used (range 0.1 mM-10 mM)): ≈ 70%
2 | Nc1ncnc2c1ncn2[C@@H]1O[C@H](COP(=O)(O)O)[C@@H](O)[C@H]1O [AMP] | inhibited | – | effect on hydroxyl radicals ([2]; 0.1, 0.3 and 1 mM): no significant effect; effect on hydroxyl radicals ([2]; 3 and 10 mM): reduction of hydroxyl radicals; also recorded: significant (P<0.05) reduction; effect on host weight loss [3]: significant inhibition
3 | Nc1ccn([C@@H]2O[C@H](COP(=O)(O)OP(=O)(O)OP(=O)(O)O)[C@@H](O)[C@H]2O)c(=O)n1 [CTP] | not inhibited | little or no effect | –
4 | O=c1ccn([C@@H]2O[C@H](COP(=O)(O)OP(=O)(O)O)[C@@H](O)[C@H]2O)c(=O)[nH]1 [UDP] | not inhibited | little or no effect | –
5 | O=c1ccn([C@@H]2O[C@H](COP(=O)(O)OP(=O)(O)OP(=O)(O)O)[C@@H](O)[C@H]2O)c(=O)[nH]1 [UTP] | not inhibited | little or no effect | –
6 | Nc1ncnc2nc[nH]c12 [adenine] | – | – | effect on DMPO—OH spin adduct formation / hydroxyl radicals ([2]; 1 mM): little or no effect; also recorded: no significant (P<0.05) effect
7 | Nc1ncnc2c1ncn2[C@@H]1O[C@H](CO)[C@@H](O)[C@H]1O [adenosine] | least inhibition | – | inhibition of host weight loss of tumour-bearing animals ([3]; adenosine without phosphate): ineffective; effect on host weight loss [3]: significant inhibition
